Assay results published in paper PMC9338973, “Rosmarinus officinalis L. hexane extract: phytochemical analysis, nanoencapsulation, and in silico, in vitro, and in vivo anti-photoaging potential evaluation” (Scientific Reports, 2022).
Converted amounts (≈) assume the structure as drawn. “And” between values parts separate entries of the source, which are not always exact repeats. Identical values can stand only once.

Legend:
[1] = molecular target: T1, Porcine pancreatic elastase (Sus scrofa, UniProt P00772); assay: Anti-elastase assay (EnzCheck, fluorimetric); format: biochemical
T1 construct: purchased Molecular Probes
T1 sequence (P00772 27-266): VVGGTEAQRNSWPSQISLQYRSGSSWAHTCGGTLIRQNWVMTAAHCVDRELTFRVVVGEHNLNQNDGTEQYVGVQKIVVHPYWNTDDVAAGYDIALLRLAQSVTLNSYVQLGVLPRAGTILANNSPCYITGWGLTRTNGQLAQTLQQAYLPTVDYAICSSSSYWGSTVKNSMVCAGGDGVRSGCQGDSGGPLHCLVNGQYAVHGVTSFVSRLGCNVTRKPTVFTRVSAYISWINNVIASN
Description: The elastase inhibitory activity was assessed fluorimetrically using the EnzCheck® elastase assay kit (Molecular Probes, Laiden, Netherlands). A 1 mg/mL stock solution of the substrate (DQ elastin) was prepared in deionized water. Porcine pancreatic elastase stock solution was prepared in deionized water at 100 U/mL and dilutions were made in Tris–HCL buffer. Pre-incubation of 50 µL of different dilutions of the extract (inhibitor) with 100 µL of the enzyme was done for 15 min followed by the addition of the substrate (50 µL). Controls were prepared with buffer instead of extract. Fluorescence intensity was continuously measured for 20 min in a fluorescence microplate reader equipped with standard fluorescein filters (λex 505 nm, λem 515 nm). Subtraction of background fluorescence was done in no-enzyme wells. 1,10-Phenathrolinewas used as a standard elastase inhibitor. The IC50 is the concentration of the extract required to inhibit 50% of elastase activity.
The percentage of elastase inhibition(%)=(1-S/C)×100 where S is the corrected fluorescence of the extract samples and C is the corrected fluorescence of the control.

collagenase = assay: Anti-collagenase assay (fluorimetric, BODIPY-gelatin); format: biochemical
Description: The evaluation of collagenase inhibitory activity was performed fluorimetrically in a microplate reader. Briefly, the self-quenched BODIPY conjugate of gelatin (Type B) was used as a fluorogenic substrate to monitor the activity of collagenase (Biovision, CA, USA). Collagenase stock solution was prepared in 50 mM Tricine buffer at 0.8 U/mL and the substrate (BODIPY) was dissolved in Tricine buffer to 2 mM. One microliter of different concentrations of the extract (1, 10, 100, and 1000 µg/mL) was incubated with the 5 µL collagenase in buffer and 44 µL Tricine buffer for 15 min before adding the substrate. […] The reaction is initiated by mixing two µL of the substrate with the previous reaction mixture. Negative controls were prepared with the buffer. Fluorescence intensity was monitored (λex 490 nm, λem 520 nm, 515 nm cut-off) in a kinetic mode at 37 °C for 30–60 min.
The percentage of collagenase inhibition(%)=(1-S/C)×100 where S is the corrected fluorescence of the extract sample and C is the corrected fluorescence of the control.

[2] = DPPH radical scavenging activity
Description: The scavenging activity of the stable 2,2-diphenyl-1-picrylhydrazyl (DPPH) free radical by RHE was assessed according to the method reported by Boly et al.[112].

elastase enzyme = molecular target: elastase enzyme; parameters: method as in doi:10.1517/13543776.3.8.1237; conditions: cited from earlier work
Cytotoxicity MTT assay = format: cell-based; conditions: human, WI-38 normal lung fibroblast cells, WI38 cell line, read-out: cytotoxic effect IC50
Description: The cytotoxicity of RHE extract was evaluated against human normal lung fibroblasts cell line WI-38 using MTT (3-(4,5-dimethylthiazol-2-yl)2,5-diphenyl tetrazolium bromide) assay[116] as recently described.

Compound: c1cnc2c(c1)ccc1cccnc12 [1,10-Phenanthroline]
- IC50 [1]: 142 µM
- IC50 Collagenase (collagenase): 340.8 ± 17.3 µg/mL (≈ 1890 µM)

Compound: Cc1c(C)c2c(c(C)c1O)CCC(C)(C(=O)O)O2 (centres unmarked) [Trolox]
- DPPH (IC50, µg/mL) [2]: 6.1 ± 0.2 µg/mL and 6.11 ± 0.2 µg/mL

Compound: CC1=CC(=O)[C@@H]2C[C@H]1C2(C)C [Verbenone]
- IC50 of elastase enzyme inhibition (elastase enzyme): picomolar range

Compound: Nc1nc2c(ncn2COCCO)c(=O)[nH]1 [acyclovir]
- IC50 (Cytotoxicity MTT assay): 48.6 ± 3.2 µg/mL (≈ 216 µM)
